The structures appear in SMILES notation.

Test [1] has as its target T1, Nav 1.7 (Homo sapiens (Human), UniProt Q15858). Description: Nav 1.7 IWQ in vitro assay (IonWorks Quattro population patch-clamp). The settings on record: 293 cells stably transfected with Nav 1.7; second part of table; read-out: Nav1.7 IWQ IC50 IP. The format is cell-based. Summed up:
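HEK293 cells stably expressing Nav 1.7, recorded by automated population patch-clamp with a train of depolarizations producing increasing inactivation. Single compound concentration added during 3–8 min unclamped period, then same protocol repeated. Leak-corrected current at 26th pulse to −20 mV gave percent block (duplicate); IC50 fitted from concentration–block curves.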
A general note: Patch clamp records ionic current or voltage across a cell membrane.

In test [2] the target is T1, Nav 1.7. Kind of test: Nav 1.7 in vitro PX assay (PatchXpress whole cell voltage clamp). Particulars: 293 cells, human Nav1.7, partially inactivated state; read-out: Nav1.7 PX IC50 IP. The class given is cell-based. In short, it runs like this: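 HEK293 cells stably expressing human Nav1.7, whole-cell voltage clamp on PatchXpress, held at potential giving 20–50% inactivation; current elicited by 20 msec pulse to −10 mV.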

T1 sequence (Q15858 whole entry): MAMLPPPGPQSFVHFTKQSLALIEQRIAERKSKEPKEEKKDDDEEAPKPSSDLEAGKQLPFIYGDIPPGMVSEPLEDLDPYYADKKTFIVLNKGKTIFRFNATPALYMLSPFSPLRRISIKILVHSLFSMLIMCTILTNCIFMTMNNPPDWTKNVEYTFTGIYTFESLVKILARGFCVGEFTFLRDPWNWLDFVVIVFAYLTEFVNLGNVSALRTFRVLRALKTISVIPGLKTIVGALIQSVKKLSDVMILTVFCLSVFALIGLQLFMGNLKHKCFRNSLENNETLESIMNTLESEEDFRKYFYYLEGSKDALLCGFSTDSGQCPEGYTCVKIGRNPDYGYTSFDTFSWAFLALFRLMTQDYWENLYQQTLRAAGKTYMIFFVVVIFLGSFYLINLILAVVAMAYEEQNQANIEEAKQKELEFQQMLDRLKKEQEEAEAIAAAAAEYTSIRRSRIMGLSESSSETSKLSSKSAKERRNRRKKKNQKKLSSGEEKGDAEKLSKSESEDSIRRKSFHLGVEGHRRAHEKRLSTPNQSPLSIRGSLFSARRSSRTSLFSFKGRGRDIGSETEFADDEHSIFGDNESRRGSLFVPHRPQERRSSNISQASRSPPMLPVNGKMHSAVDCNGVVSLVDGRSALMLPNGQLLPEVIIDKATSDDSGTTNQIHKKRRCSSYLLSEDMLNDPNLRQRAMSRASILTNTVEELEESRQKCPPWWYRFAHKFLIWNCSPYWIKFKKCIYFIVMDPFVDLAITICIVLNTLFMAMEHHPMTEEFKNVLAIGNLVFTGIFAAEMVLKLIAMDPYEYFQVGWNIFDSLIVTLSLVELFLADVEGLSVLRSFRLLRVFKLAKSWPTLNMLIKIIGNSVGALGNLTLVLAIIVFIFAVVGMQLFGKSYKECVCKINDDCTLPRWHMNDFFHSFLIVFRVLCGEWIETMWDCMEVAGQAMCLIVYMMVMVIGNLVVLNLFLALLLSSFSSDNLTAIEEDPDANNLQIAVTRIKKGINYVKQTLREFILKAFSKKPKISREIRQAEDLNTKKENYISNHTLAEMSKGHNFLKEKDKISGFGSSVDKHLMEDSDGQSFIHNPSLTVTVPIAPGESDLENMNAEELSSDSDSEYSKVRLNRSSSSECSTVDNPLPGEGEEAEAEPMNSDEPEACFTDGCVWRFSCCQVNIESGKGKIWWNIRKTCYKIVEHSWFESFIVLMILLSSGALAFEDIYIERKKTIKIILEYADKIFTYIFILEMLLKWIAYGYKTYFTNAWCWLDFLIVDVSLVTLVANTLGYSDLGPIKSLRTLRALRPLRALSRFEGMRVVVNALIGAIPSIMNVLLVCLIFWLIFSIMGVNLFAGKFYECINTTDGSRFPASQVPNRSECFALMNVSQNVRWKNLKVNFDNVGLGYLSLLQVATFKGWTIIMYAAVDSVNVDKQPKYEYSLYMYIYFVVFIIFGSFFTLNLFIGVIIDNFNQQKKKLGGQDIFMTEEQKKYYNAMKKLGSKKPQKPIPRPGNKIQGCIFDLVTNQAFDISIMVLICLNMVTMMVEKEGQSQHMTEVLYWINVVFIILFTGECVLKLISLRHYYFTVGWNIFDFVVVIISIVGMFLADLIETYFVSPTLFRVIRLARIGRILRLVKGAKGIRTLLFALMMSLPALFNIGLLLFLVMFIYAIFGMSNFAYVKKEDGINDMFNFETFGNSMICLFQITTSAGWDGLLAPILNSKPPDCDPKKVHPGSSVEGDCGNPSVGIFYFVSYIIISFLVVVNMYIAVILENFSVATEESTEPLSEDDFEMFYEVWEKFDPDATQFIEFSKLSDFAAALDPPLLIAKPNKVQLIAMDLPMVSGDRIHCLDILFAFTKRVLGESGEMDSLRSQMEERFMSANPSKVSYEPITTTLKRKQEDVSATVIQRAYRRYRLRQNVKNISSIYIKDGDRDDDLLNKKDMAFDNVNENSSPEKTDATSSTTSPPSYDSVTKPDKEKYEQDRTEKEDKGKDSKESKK

Turning to `COc1ccccc1-c1nccc2cc(S(=O)(=O)Nc3ncns3)ccc12` [Example 194, 1-(2-METHOXYPHENYL)-N-(1,2,4-THIADIAZOL-5-YL)ISOQUINOLINE-6-SULFONAMIDE], the IC50 on Nav 1.7 [1] worked out at 10 nM; at Nav 1.7 [2], 255 nM.

As for `COc1cc(-c2cccnc2)ccc1-c1nccc2cc(S(=O)(=O)Nc3nccs3)ccc12` [Example 204, 1-(2-METHOXY-4-(PYRIDIN-3-YL)PHENYL)-N-(THIAZOL-2-YL)ISOQUINOLINE-6-SULFONAMIDE], the values for the IC50 at Nav 1.7 [1] and at Nav 1.7 [2] were 30 nM and 614 nM, respectively.

Consider `COc1cc(C(F)(F)F)ccc1-c1nncc2cc(S(=O)(=O)Nc3ncc(F)s3)ccc12` [Example 255, N-(5-FLUOROTHIAZOL-2-YL)-1-(2-METHOXY-4-(TRIFLUOROMETHYL)PHENYL)PHTHALAZINE-6-SULFONAMIDE], for which the half-maximal inhibitory concentration (IC50) was determined as 20 nM on Nav 1.7 [1] and 150 nM on Nav 1.7 [2].

As to `COc1ncc(Cl)cc1-c1nccc2cc(S(=O)(=O)Nc3nccs3)ccc12` [Example 176, 1-(5-CHLORO-2-METHOXYPYRIDIN-3-YL)-N-(THIAZOL-2-YL)ISOQUINOLINE-6-SULFONAMIDE], the concentration for half-maximal inhibition (IC50) on Nav 1.7 [1] turned out to be 30 nM; on Nav 1.7 [2], 507 nM.

Consider `COc1cc(C(F)F)ccc1-c1nccc2cc(S(=O)(=O)Nc3nccs3)ccc12` [Example 224, 1-(4-(DIFLUOROMETHYL)-2-METHOXYPHENYL)-N-(THIAZOL-2-YL)ISOQUINOLINE-6-SULFONAMIDE], for which the IC50 turned out to be 20 nM on Nav 1.7 [1] and 313 nM at Nav 1.7 [2].

In the case of `O=S(=O)(Nc1ncns1)c1ccc2c(N3CCC[C@H]3c3ccncc3)cccc2c1` (single isomer, unassigned) [Example 89], the 50% inhibitory concentration (IC50) at Nav 1.7 [1] was 290 nM; on Nav 1.7 [2] it was 2330 nM.

In the case of `O=S(=O)(Nc1ncc(F)s1)c1ccc2c(-c3ccc(C(F)(F)F)cc3C3=CCNCC3)cccc2c1` [Example 108], the IC50 at Nav 1.7 [1] was found to be 170 nM; at Nav 1.7 [2], 210 nM.

For the molecule `COc1ccccc1-c1cccc2cc(S(=O)(=O)Nc3ncns3)ccc12` [Example 94], the IC50 was 10 nM at Nav 1.7 [1] and 57.2 nM at Nav 1.7 [2].

On to `COc1cc(C#N)ccc1-c1nccc2cc(S(=O)(=O)Nc3ccncn3)ccc12` [Example 206, 1-(4-CYANO-2-METHOXYPHENYL)-N-(PYRIMIDIN-4-YL)ISOQUINOLINE-6-SULFONAMIDE], for which the IC50 on Nav 1.7 [1] is 110 nM; on Nav 1.7 [2], 4420 nM.

Turning to `COc1cc(C#N)ccc1-c1ccnc2cc(S(=O)(=O)Nc3nccs3)ccc12` [Example 273, 4-(4-CYANO-2-METHOXYPHENYL)-N-(THIAZOL-2-YL)QUINOLINE-7-SULFONAMIDE], the IC50 came to 20 nM on Nav 1.7 [1] and 500 nM at Nav 1.7 [2].

As for `O=S(=O)(Nc1nccs1)c1ccc2c(-c3ccc(F)cc3O)nccc2c1` [Example 189, 1-(4-FLUORO-2-HYDROXYPHENYL)-N-(THIAZOL-2-YL)ISOQUINOLINE-6-SULFONAMIDE], the IC50 at Nav 1.7 [1] turned out to be 460 nM; on Nav 1.7 [2], 5960 nM.

Consider `O=S(=O)(Nc1ncns1)c1ccc2c(N3CCCC3c3cccnc3)cccc2c1` (centres unmarked) [Example 85], for which the IC50 on Nav 1.7 [1] was found to be 10 nM; on Nav 1.7 [2], 173 nM.

On to `COCc1cc(C(F)(F)F)ccc1-c1nccc2cc(S(=O)(=O)Nc3nccs3)ccc12` [Example 225, 1-(2-(METHOXYMETHYL)-4-(TRIFLUOROMETHYL)PHENYL)-N-(THIAZOL-2-YL)ISOQUINOLINE-6-SULFONAMIDE], for which the values for the IC50 at Nav 1.7 [1] and at Nav 1.7 [2] were 30 nM and 741 nM, respectively.

For the molecule `O=S(=O)(Nc1ccncn1)c1ccc2c(-c3ccccc3OCC(F)(F)F)nccc2c1` [Example 174, N-(PYRIMIDIN-4-YL)-1-(2-(2,2,2-TRIFLUOROETHOXY)PHENYL)ISOQUINOLINE-6-SULFONAMIDE], the half-inhibitory concentration (IC50) at Nav 1.7 [1] was determined as 640 nM; at Nav 1.7 [2], 29800 nM.

As to `Cn1cncc1-c1cc(C(F)(F)F)ccc1-c1cccc2cc(S(=O)(=O)Nc3ncc(F)s3)ccc12` [Example 110], the results for the half-maximal inhibitory concentration (IC50) on Nav 1.7 [1] and on Nav 1.7 [2] were 40 nM and 140 nM, respectively.

As for `COc1cc(C(F)(F)F)ccc1-c1ncnc2cc(S(=O)(=O)Nc3nncs3)ccc12` [Example 268, 4-(2-METHOXY-4-(TRIFLUOROMETHYL)PHENYL)-N-(1,3,4-THIADIAZOL-2-YL)QUINAZOLINE-7-SULFONAMIDE], the IC50 on Nav 1.7 [1] turned out to be 1100 nM; on Nav 1.7 [2], 2520 nM.

As to `COc1cc2cc(S(=O)(=O)Nc3nccs3)ccc2c(-c2ccc(C(F)(F)F)cc2OC)n1` [Example 221, 3-METHOXY-1-(2-METHOXY-4-(TRIFLUOROMETHYL)PHENYL)-N-(THIAZOL-2-YL)ISOQUINOLINE-6-SULFONAMIDE], the values for the IC50 at Nav 1.7 [1] and at Nav 1.7 [2] were 110 nM and 1530 nM, respectively.

Consider `O=S(=O)(Nc1ncns1)c1ccc2c(N3CCCC3c3ccncc3)cccc2c1` (centres unmarked) [Example 88], for which the concentration for half-maximal inhibition (IC50) at Nav 1.7 [1] worked out at 20 nM; on Nav 1.7 [2], 238 nM.

Regarding `COc1cc(C(F)(F)F)ccc1-c1nccc2cc(S(=O)(=O)Nc3nncs3)ccc12` [Example 184, 1-(2-METHOXY-4-(TRIFLUOROMETHYL)PHENYL)-N-(1,3,4-THIADIAZOL-2-YL)ISOQUINOLINE-6-SULFONAMIDE], the IC50 on Nav 1.7 [1] was determined as 320 nM; on Nav 1.7 [2], 912 nM.

On to `COc1cc(C(F)(F)F)ccc1-c1cncc2cc(S(=O)(=O)Nc3nccs3)ccc12` [Example 288, 4-(2-METHOXY-4-(TRIFLUOROMETHYL)PHENYL)-N-(THIAZOL-2-YL)ISOQUINOLINE-7-SULFONAMIDE], for which the IC50 on Nav 1.7 [1] was determined as 40 nM; at Nav 1.7 [2] it was 600 nM.

`O=S(=O)(Nc1ccncn1)c1ccc2c(-c3ccc(C(F)(F)F)cc3)nccc2c1` [Example 141, N-(PYRIMIDIN-4-YL)-1-(4-(TRIFLUOROMETHYL)PHENYL)ISOQUINOLINE-6-SULFONAMIDE]: the 50% inhibitory concentration (IC50) at Nav 1.7 [1] worked out at 2300 nM; at Nav 1.7 [2], 29600 nM.

In the case of `COc1cc(Cl)ccc1-c1nccc2cc(S(=O)(=O)Nc3ccncn3)ccc12` [Example 160, 1-(4-CHLORO-2-METHOXYPHENYL)-N-(PYRIMIDIN-4-YL)ISOQUINOLINE-6-SULFONAMIDE], the figures for the 50% inhibitory concentration (IC50) on Nav 1.7 [1] and on Nav 1.7 [2] were 20 nM and 1330 nM, respectively.

Take `COc1cccc(OC)c1-c1nccc2cc(S(=O)(=O)Nc3ccncn3)ccc12` [Example 171, 1-(2,6-DIMETHOXYPHENYL)-N-(PYRIMIDIN-4-YL)ISOQUINOLINE-6-SULFONAMIDE]: the IC50 stood at 730 nM on Nav 1.7 [1] and 23000 nM at Nav 1.7 [2].

`COc1cc(NS(=O)(=O)c2ccc3c(-c4ccc(C(F)(F)F)cc4OC)nccc3c2)ncn1` [Example 181, 1-(2-METHOXY-4-(TRIFLUOROMETHYL)PHENYL)-N-(6-METHOXYPYRIMIDIN-4-YL)ISOQUINOLINE-6-SULFONAMIDE]: the concentration for half-maximal inhibition (IC50) stood at 110 nM at Nav 1.7 [1] and 1560 nM on Nav 1.7 [2].

For `COc1cc(C(F)(F)F)ccc1-c1nccc2cc(S(=O)(=O)Nc3ncncc3F)ccc12` [Example 183, N-(5-FLUOROPYRIMIDIN-4-YL)-1-(2-METHOXY-4-(TRIFLUOROMETHYL)PHENYL)ISOQUINOLINE-6-SULFONAMIDE], the IC50 at Nav 1.7 [1] is 670 nM; on Nav 1.7 [2], 5870 nM.

In the case of `Cn1ccnc1-c1cc(C(F)(F)F)ccc1-c1cccc2cc(S(=O)(=O)Nc3ccncn3)ccc12` [Example 124], the IC50 at Nav 1.7 [1] amounted to 60 nM; on Nav 1.7 [2], 502 nM.

For the molecule `COc1cc(F)ccc1-c1ccnc2cc(S(=O)(=O)Nc3nccs3)ccc12` [Example 274, 4-(4-FLUORO-2-METHOXYPHENYL)-N-(THIAZOL-2-YL)QUINOLINE-7-SULFONAMIDE], the IC50 on Nav 1.7 [1] turned out to be 30 nM; on Nav 1.7 [2], 490 nM.

For `COc1cc(C(F)(F)F)ccc1-c1nccc2cc(S(=O)(=O)Nc3cccnn3)ccc12` [Example 185, 1-(2-METHOXY-4-(TRIFLUOROMETHYL)PHENYL)-N-(PYRIDAZIN-3-YL)ISOQUINOLINE-6-SULFONAMIDE], the concentration for half-maximal inhibition (IC50) at Nav 1.7 [1] stood at 270 nM; on Nav 1.7 [2], 2700 nM.

With `COc1cc(C(F)(F)F)ccc1-c1nccc2cc(S(=O)(=O)Nc3ccnc(C)n3)ccc12` [Example 182, 1-(2-METHOXY-4-(TRIFLUOROMETHYL)PHENYL)-N-(2-METHYLPYRIMIDIN-4-YL)ISOQUINOLINE-6-SULFONAMIDE], the figures for the IC50 at Nav 1.7 [1] and on Nav 1.7 [2] were 4260 nM and 11700 nM, respectively.

For `O=S(=O)(Nc1nccs1)c1ccc2c(-c3ccc(C(F)(F)F)cc3CC(O)CO)nccc2c1` (centres unmarked) [Example 230, 1-(2-(2,3-DIHYDROXYPROPYL)-4-(TRIFLUOROMETHYL)PHENYL)-N-(THIAZOL-2-YL)ISOQUINOLINE-6-SULFONAMIDE 2,2,2-TRIFLUOROACETATE], the IC50 at Nav 1.7 [1] came out at 30 nM; at Nav 1.7 [2], 590 nM.

Regarding `COc1cc(-c2cccc(F)c2)ccc1-c1nccc2cc(S(=O)(=O)Nc3nccs3)ccc12` [Example 202, 1-(3′-FLUORO-3-METHOXY-[1,1′-BIPHENYL]-4-YL)-N-(THIAZOL-2-YL)ISOQUINOLINE-6-SULFONAMIDE 2,2,2-TRIFLUOROACETATE], the IC50 at Nav 1.7 [1] turned out to be 340 nM; at Nav 1.7 [2], 508 nM.

On to `COc1cc(C(F)(F)F)ccc1-c1nc(C#N)cc2cc(S(=O)(=O)Nc3nccs3)ccc12` [Example 220, 3-CYANO-1-(2-METHOXY-4-(TRIFLUOROMETHYL)PHENYL)-N-(THIAZOL-2-YL)ISOQUINOLINE-6-SULFONAMIDE], for which the IC50 on Nav 1.7 [1] stood at 60 nM; on Nav 1.7 [2], 450 nM.

In the case of `COc1cc(C(F)(F)F)ccc1-c1ncnc2cc(S(=O)(=O)Nc3ncco3)ccc12` [Example 264, 4-(2-METHOXY-4-(TRIFLUOROMETHYL)PHENYL)-N-(OXAZOL-2-YL)QUINAZOLINE-7-SULFONAMIDE], the results for the IC50 on Nav 1.7 [1] and on Nav 1.7 [2] were 170 nM and 1870 nM, respectively.

Consider `COc1cc(Cl)ccc1-c1ccnc2cc(S(=O)(=O)Nc3nccs3)ccc12` [Example 275, 4-(4-CHLORO-2-METHOXYPHENYL)-N-(THIAZOL-2-YL)QUINOLINE-7-SULFONAMIDE], for which the IC50 at Nav 1.7 [1] came to 40 nM; at Nav 1.7 [2], 420 nM.

By IC50 is commonly meant the concentration that gives 50% inhibition.

For the origin of these results see US9012443B2 (Amgen Inc., priority 2011, dated 2015).
